The text below walks through data of patent US20200315998A1, “COMPOSITION FOR IMPROVING INTESTINAL BARRIER FUNCTION” (SUNTORY HOLDINGS LIMITED, priority 2017, published 2020).

In the experiment the test system is Caco-2 cells. In words: Evaluation of intestinal barrier function improvement: TEER reduction suppression in Caco-2 monolayer with inflammatory cytokines (TNFα, IL-1β, IFNγ). Type of experiment: cell-based, human. Conditions: for Synergistic effect (M.V./T/V/) / TEER reduction suppression ratio (%) +gallic acid (actual measurement value) (M.V.) / Synergistic effect (M.V./T.V.): combined use of phenolic compound and gallic acid; for TEER reduction suppression ratio (%) +gallic acid (theoretical value) (T.V.): sum of ratios of phenolic compound alone and gallic acid alone; for TEER reduction suppression ratio: sample alone 100 μM, TNFα 40 ng/mL, IL-1β 20 ng/mL, IFNγ 10 ng/mL, 48 hours; for Relative value of TEER reduction suppression ratio: sample alone 1 μM; for Synergistic effect (relative value of actual measurement value / relative value of theoretical value): combined use of the phenolic compound with gallic acid, 1 μM each (Table 1). The source says: The intestinal barrier function improvement effect is indicated by, for example, increase in the electrical resistance value (transepithelial electric resistance: TEER) of the intestinal epithelial cells or suppression of the decrease in the TEER. A substance increasing the TEER or suppressing the decrease thereof has the action of normalizing or strengthening the tight junction in the intestinal epithelial cells. The intestinal barrier function improvement effect is also indicated by decrease in the amount of a substance permeating from the intestinal side of the intestinal epithelial cells to the inside of the body. The person skilled in the art can select a specific method of evaluating the intestinal barrier function improvement effect depending on the purpose. For exarple, as shown in Examples to be described later, a method for measuring TEER using an intestinal permeation model using human intestinal epithelial cells (Caco-2 cells) can be used. Specifically, inflammatory cytokine (TNFα, IL-1β, IFNγ and the like) is added into Caco-2 monolayer cultured cells to produce a state where the intestinal barrier function can be collapsed in human. If the addition of a test substance suppresses the decrease in the TEER as compared with the case where the substance is not added, the test substance can be evaluated to have the intestinal barrier function improvement effect.
Caco-2 cells were cultured for three weeks at 37° C. in Transwell (manufactured by Millicell Corporation) using DMEM (Dulbecco's modified Eagle's medium). A medium was removed from a plate of cultured Caco-2 cells, and the well was washed 3 times with serum-free DMEM. The well was filled with the medium. Then, the transepithelial electrical resistance (TEER) of Caco-2 monolayer cells was measured by Millicell-ERS (manufactured by Millipore Corporation). Cells (TEER≥1000 Ω·cm^2) determined that a sufficient tight junction was formed were selected, and used for the next screening. Then, to test solutions (media) on both apical and basolateral membrane sides, a sample, TNFα (40 ng/mL), IL-1β (20 ng/mL), and IFNγ (10 ng/mL) were added, followed by cultivating for 48 hours. The sample was dissolved in dimethyl sulfoxide (DMSO), and the solution was then added to the test solutions. In this case, a well to which inflammatory cytokine (TNFα, IL-1β, and IFNγ) and the sample were not added was provided as normal. A well to which inflammatory cytokine was added and the sample was not added was provided as control. After the cultivation, TEER was measured again, to evaluate whether the sample suppressed the reduction (decrease) of TEER due to the inflammatory cytokine.
The TEER reduction suppression ratio (%) due to the sample was determined according to the following formula from the TEER values of the well to which the sample was added, normal, and control.
(Calculating formula of TEER reduction suppression ratio) TEER reduction suppression ratio (%)=100×((TEER of well to which sample is added)−(TEER of control))/((TEER of normal)−(TEER of control))
In this evaluation system, as the TEER reduction suppression ratio (%) is higher, an intestinal barrier function improvement effect is higher.

Where [1] appears, read: Evaluation 4, epigallocatechin (EGC) set to 1.0.
The mark [2] stands for this setting: Evaluation 3, gallocatechin (GC) set to 1.0.

Take `Oc1cc(O)c2c(c1)O[C@H](c1ccc(O)c(O)c1)[C@H](O)[C@H]2c1c(O)cc(O)c2c1O[C@H](c1ccc(O)c(O)c1)[C@H](O)C2` [Procyanidin B2, procyanidin B2]: for the setting “each 10 μM”, the “Synergistic effect (M.V./T/V/)” value is on record as 1.5 and the “TEER reduction suppression ratio (%) +gallic acid (actual measurement value) (M.V.)” value is listed as 76%. Moreover, the “TEER reduction suppression ratio (%) +gallic acid (theoretical value) (T.V.)” value (10 μM each) came to 51%.

Regarding `O=C(OC1C(OC(=O)c2cc(O)c(O)c(O)c2)[C@H](O)OC2COC(=O)c3cc(O)c(O)c(O)c3-c3c(cc(O)c(O)c3O)C(=O)O[C@H]21)c1cc(O)c(O)c(O)c1` (some centres unmarked) [Tellimagrandin I, tellimagrandin I], for the setting “each 1 μM”, the “Synergistic effect (M.V./T.V.)” value was found to be 1.6 and the “TEER reduction suppression ratio (%) +gallic acid (actual measurement value) (M.V.)” value was 92%.

`O=C1c2c(O)cc(O)cc2O[C@H](c2ccc(O)c(O)c2)[C@H]1O` [Taxifolin, taxifolin]: under “each 10 μM”, the “Synergistic effect (M.V./T/V/)” value came out at 2.0 and the “TEER reduction suppression ratio (%) +gallic acid (actual measurement value) (M.V.)” value is listed as 59%.

As to `O=c1c(O)c(-c2ccc(O)c(O)c2)oc2cc(O)cc(O)c12` [Quercetin, quercetin, reference compound], the “TEER reduction suppression ratio” value was found to be 75.0%. Also, under “each 10 μM”, the “Synergistic effect (M.V./T/V/)” value came out at 1.7 and the “TEER reduction suppression ratio (%) +gallic acid (actual measurement value) (M.V.)” value was found to be 61%.

On to `O=C(O)c1cc(O)c(O)c(O)c1Oc1cc2c(c(O)c1O)-c1c(cc(O)c(O)c1O)C(=O)O[C@@H]1C(COC2=O)O[C@@H](O)C2OC(=O)c3cc(O)c(O)c(O)c3-c3c(cc(O)c(O)c3O)C(=O)OC21` (some centres unmarked) [Praecoxin A, praecoxin A], for which, for the setting “each 1 μM”, the “Synergistic effect (M.V./T.V.)” value stood at 1.4 and the “TEER reduction suppression ratio (%) +gallic acid (actual measurement value) (M.V.)” value is 104%.

On to `O=c1c(O)c(-c2ccc(O)cc2)oc2cc(O)cc(O)c12` [Kaempferol, kaempferol], for which, where the note is “each 10 μM”, the “Synergistic effect (M.V./T/V/)” value is given as 2.5 and the “TEER reduction suppression ratio (%) +gallic acid (actual measurement value) (M.V.)” value amounted to 43%.

Consider `Oc1cc(O)c2c(c1)O[C@H](c1cc(O)c(O)c(O)c1)[C@H](O)C2` [Epigallocatechin (EGC), epigallocatechin], for which the “Synergistic effect (relative value of actual measurement value / relative value of theoretical value)” value came to 1.5. In addition, the “Relative value of TEER reduction suppression ratio” value under setting [1] is on record as 1.0.

As to `C[C@@H]1O[C@@H](OC[C@H]2O[C@@H](Oc3c(-c4ccc(O)c(O)c4)oc4cc(O)cc(O)c4c3=O)[C@H](O)[C@@H](O)[C@@H]2O)[C@H](O)[C@H](O)[C@H]1O` [Rutin, rutin], under “each 10 μM”, the “Synergistic effect (M.V./T/V/)” value stood at 2.9 and the “TEER reduction suppression ratio (%) +gallic acid (actual measurement value) (M.V.)” value came out at 45%.

With `O=C1O[C@@H]2C3COC(=O)c4cc(O)c(O)c(O)c4-c4c(cc(O)c(O)c4O)C(=O)O[C@H]2C(OC(=O)c2cc(O)c(O)c4c2C2C1=CC(=O)C(O)(O)[C@@]2(O)O4)[C@H](OC(=O)c1cc(O)c(O)c(O)c1)O3` (some centres unmarked) [Geraniin, geraniin], where the note is “each 1 μM”, the “Synergistic effect (M.V./T.V.)” value came out at 2.4 and the “TEER reduction suppression ratio (%) +gallic acid (actual measurement value) (M.V.)” value was found to be 119%.

Regarding `O=C(O)/C=C/c1ccccc1O` [2-Coumaric acid, 2-coumaric acid], under “each 10 μM”, the “Synergistic effect (M.V./T/V/)” value came to 3.0 and the “TEER reduction suppression ratio (%) +gallic acid (actual measurement value) (M.V.)” value turned out to be 46%.

In the case of `O=C(O[C@@H]1O[C@H](CO)[C@@H](O)[C@H](O)[C@H]1O)c1cc(O)c(O)c(O)c1` [β-glucogallin], where the note is “each 1 μM”, the “Synergistic effect (M.V./T.V.)” value amounted to 2.4 and the “TEER reduction suppression ratio (%) +gallic acid (actual measurement value) (M.V.)” value is given as 48%.

In the case of `O=c1cc(-c2ccc(O)c(O)c2)oc2cc(O)cc(O)c12` [Luteolin, luteolin], under “each 10 μM”, the “Synergistic effect (M.V./T/V/)” value came to 1.6 and the “TEER reduction suppression ratio (%) +gallic acid (actual measurement value) (M.V.)” value is 58%.

In the case of eugeniflorin D2, for the setting “each 1 μM”, the “Synergistic effect (M.V./T.V.)” value stood at 1.3 and the “TEER reduction suppression ratio (%) +gallic acid (actual measurement value) (M.V.)” value came out at 102%. Further, under “1 μM each”, the “TEER reduction suppression ratio (%) +gallic acid (theoretical value) (T.V.)” value is 80%.

Consider `Oc1cc(O)c2c(c1)O[C@H](c1ccc(O)c(O)c1)[C@@H](O)[C@@H]2c1c(O)cc(O)c2c1O[C@H](c1ccc(O)c(O)c1)[C@@H](O)C2` [Procyanidin B3, procyanidin B3], for which, where the note is “each 10 μM”, the “Synergistic effect (M.V./T/V/)” value is on record as 1.9 and the “TEER reduction suppression ratio (%) +gallic acid (actual measurement value) (M.V.)” value is listed as 77%. Also, for the setting “10 μM each”, the “TEER reduction suppression ratio (%) +gallic acid (theoretical value) (T.V.)” value amounted to 53%.

As for `O=C(OC[C@H]1O[C@@H](OC(=O)c2cc(O)c(O)c(O)c2)[C@H](OC(=O)c2cc(O)c(O)c(O)c2)[C@@H](OC(=O)c2cc(O)c(O)c(O)c2)[C@@H]1O)c1cc(O)c(O)c(O)c1` [1,2,3,6-tetra-O-galloyl-β-D-glucose], for the setting “each 1 μM”, the “Synergistic effect (M.V./T.V.)” value stood at 1.5 and the “TEER reduction suppression ratio (%) +gallic acid (actual measurement value) (M.V.)” value is listed as 81%.

Take `O=C1OCC2O[C@@H](O)C3OC(=O)c4cc(O)c(O)c(O)c4-c4c(cc(O)c(O)c4O)C(=O)OC3[C@@H]2OC(=O)c2cc(O)c(O)c(O)c2-c2c1cc(O)c(O)c2O` (some centres unmarked) [Pedunculagin, pedunculagin]: for the setting “each 1 μM”, the “Synergistic effect (M.V./T.V.)” value worked out at 1.7 and the “TEER reduction suppression ratio (%) +gallic acid (actual measurement value) (M.V.)” value is reported as 90%.

In the case of `O=C(O)c1cc(O)c(O)c(O)c1` [Gallic acid (GA), 3,4,5-trihydroxybenzoic acid], the “TEER reduction suppression ratio” value is on record as 86.5%. Besides, the “TEER reduction suppression ratio of gallic acid relative to quercetin at the same concentration” value (100 μM each, gallic acid vs quercetin) is reported as “about 1.15 times”. For the setting “Evaluation 1, catechin (CA) set to 1.0”, the “Relative value of TEER reduction suppression ratio” value stood at 0.4. Further, the “Relative value of TEER reduction suppression ratio” value (Evaluation 2, epicatechin (EC) set to 1.0) was determined as 0.5. Besides, under setting [2], the “Relative value of TEER reduction suppression ratio” value came out at 0.3. In addition, under setting [1], the “Relative value of TEER reduction suppression ratio” value amounted to 0.2. For the same compound, the “Suppression of the reduction of TEER due to inflammatory cytokine” value (gallic acid alone, 1 μM and 10 μM) is “suppressed the reduction of TEER”.

Consider `Oc1cc(O)c2c(c1)O[C@H](c1cc(O)c(O)c(O)c1)[C@@H](O)C2` [Galloatechin (GC), gallocatechin], for which the “Synergistic effect (relative value of actual measurement value / relative value of theoretical value)” value is listed as 2.5. Further, the “Relative value of TEER reduction suppression ratio” value under setting [2] is reported as 1.0.

On to `O=c1c(-c2ccc(O)cc2)coc2cc(O)ccc12` [Daidzein, daidzein], for which, for the setting “each 10 μM”, the “Synergistic effect (M.V./T/V/)” value worked out at 1.8 and the “TEER reduction suppression ratio (%) +gallic acid (actual measurement value) (M.V.)” value is given as 50%.

Regarding `O=C(OC[C@H]1O[C@@H](O)[C@H](OC(=O)c2cc(O)c(O)c(O)c2)[C@@H](OC(=O)c2cc(O)c(O)c(O)c2)[C@@H]1OC(=O)c1cc(O)c(O)c(O)c1)c1cc(O)c(O)c(O)c1` [2,3,4,6-tetra-O-galloyl-β-D-glucose], for the setting “each 1 μM”, the “Synergistic effect (M.V./T.V.)” value is given as 2.0 and the “TEER reduction suppression ratio (%) +gallic acid (actual measurement value) (M.V.)” value was found to be 90%.

Turning to `O=C(O[C@@H]1Cc2c(O)cc(O)cc2O[C@@H]1c1cc(O)c(O)c(O)c1)c1cc(O)c(O)c(O)c1` [Epigallocatechin gallate, epigallocatechin gallate], where the note is “each 10 μM”, the “Synergistic effect (M.V./T/V/)” value was determined as 1.5 and the “TEER reduction suppression ratio (%) +gallic acid (actual measurement value) (M.V.)” value is on record as 114%. Further, the “TEER reduction suppression ratio (%) +gallic acid (theoretical value) (T.V.)” value (10 μM each) stood at 76%.

`O=c1c(O[C@@H]2O[C@H](CO)[C@@H](O)[C@H](O)[C@H]2O)c(-c2ccc(O)c(O)c2)oc2cc(O)cc(O)c12` [Quercetin-3-O-glucopyranoside, quercetin-3-O-glucopyranoside]: under “each 10 μM”, the “Synergistic effect (M.V./T/V/)” value came out at 1.5 and the “TEER reduction suppression ratio (%) +gallic acid (actual measurement value) (M.V.)” value worked out at 47%.

In the case of `O=C(OC[C@H]1O[C@@H](OC(=O)c2cc(O)c(O)c(O)c2)[C@H](O)[C@@H](O)[C@@H]1OC(=O)c1cc(O)c(O)c(O)c1)c1cc(O)c(O)c(O)c1` [1,4,6-tri-O-galloyl-β-D-glucose], for the setting “each 1 μM”, the “Synergistic effect (M.V./T.V.)” value amounted to 1.7 and the “TEER reduction suppression ratio (%) +gallic acid (actual measurement value) (M.V.)” value is on record as 40%.
